“Also recorded” adds a separate entry of the source. Counter-ions that a name gives are not always drawn.
Columns and labels:
[1] = Formulation of stable concentrated imatinib solutions in different solvents (Examples 1-4); conditions: room temperature, one hour
[2] = test system: PAH patients; conditions: oral; phase II, 59 patients; cited from earlier work
[3] = In vitro nebulization feasibility, Medspray wet aerosol inhaler single nozzle unit (Example 5); type: physicochemical; conditions: Medspray nozzle pore size 1.9 μm
Description: In an in vitro nebulization study, the feasibility to nebulize different imatinib mesylate solutions by the Medspray™ wet aerosol inhaler was evaluated. A 1 ml syringe was filled with the formulation to be tested, a single nozzle unit of Medspray™ wet aerosol inhaler was then fixed on the syringe by a luer adapter. The nozzle pore size was 1.9 μm. The aerosol was produced by pressing the piston of the syringe manually, thereby forcing the solution through the nozzle pores. […] When using ethanol 10% (v/v) or glycerol 1% (v/v), solutions with a concentration of 240 mg/ml were nebulizable; a mixture of ethanol 10% (v/v) and glycerol 1% (v/v) further increased the maximum imatinib concentration of the solution to 250 mg/ml capable of being nebulized.

[4] = test system: PAH-patients; conditions: oral, cited from earlier work
[5] = cited from earlier work
[6] = 24-week trial, 202 PAH-patients

Cc1ccc(NC(=O)c2ccc(CN3CCN(C)CC3)cc2)cc1Nc1nccc(-c2cccnc2)n1 [Imatinib free base, 4-[(4-methylpiperazin-1-yl)methyl]-N-(4-methyl-3-{[4-(pyridin-3-yl)pyrimidin-2-yl]amino}phenyl)benzamide]
imatinib concentration of stable solution that could be formulated ([1]; a. dest, NaCl 0.9%, citrate buffer 5%, urea 5%, ethanol 10%, glycerol 1%): ≤ 5 mg/mL

Cc1ccc(NC(=O)c2ccc(CN3CCN(C)CC3)cc2)cc1Nc1nccc(-c2cccnc2)n1 [Imatinib mesylate]
change from baseline in the 6-minute-walk distance (primary endpoint) [2]: not meeting the primary endpoint
pulmonary hemodynamics (secondary endpoint) [2]: significantly improved
stability of resulting solutions ([1]; higher ionic strength solvents of Example 3): not stable
concentration of stable imatinib mesylate solution that could be formulated ([1]; higher ionic strength solvents: NaCl 0.9%, HCl/NaOH, citrate, HEPES, trometamol, PBS buffer): < 50 mg/mL
concentration of stable imatinib mesylate solution that could be formulated ([1]; low ionic strength solvents of Example 4 (a. dest, ethanol, urea, glycerol, mannitol, glycols, ectoin)): up to 500 mg/ml
maximum concentration capable of being nebulized ([3]; solvent a. dest): 210 mg/mL
maximum imatinib concentration capable of being nebulized ([3]; solvent ethanol 10% (v/v) and glycerol 1% (v/v)): 250 mg/mL
concentration nebulizable ([3]; solvent ethanol 10% (v/v)): 240 mg/mL
concentration nebulizable ([3]; solvent glycerol 1% (v/v)): 240 mg/mL
6-minute walk distance (primary outcome) [4, 6]: significantly improving; also recorded: significantly improved
pulmonary vascular resistance [4, 6]: significantly improved
inter-subject variation in pharmacokinetics ([5]; in vivo): high
bioavailability ([5]; oral): almost complete

Cc1ccc(NC(=O)c2ccc(CN3CCN(C)CC3)cc2)cc1Nc1nccc(-c2cccnc2)n1 [imatinib, 4-[(4-methylpiperazin-1-yl)methyl]-N-(4-methyl-3-{[4-(pyridin-3-yl)pyrimidin-2-yl]amino}phenyl)benzamide]
adverse events, side effects and discontinuation ([4]; study and open-label extension phase): severe adverse events, significant side effects, and a high discontinuation rate

Source: US20250127716A1, “INHALED IMATINIB FOR TREATMENT OF PULMONARY HYPERTENSION” (JUSTUS-LIEBIG-UNIVERSITAET GIESSEN, priority 2022, published 2025)
